The values below are quoted from earlier work in US20110097427A1, “Molecular Targets and Dietary Modulators of Exercise-Induced Muscle Damage” (priority 2009, published 2011).

The conditions of the data set: Risérus et al., 2008, Diabetes 57: 332-339.

As to `Cc1cc(SCc2sc(-c3ccc(C(F)(F)F)cc3)nc2C)ccc1OCC(=O)O` [GW501516], the urinary isoprostanes entry is given as “reduced”.
